Like-named read-outs stand apart in the source and are kept apart here.
Assays:
[1] = tested on: Jurkat; experiment: In vitro anti-proliferative assay, Jurkat; type: cell-based, human; details: non-MLL-rearranged, up to 14 days
Description: (§1) In Vitro Anti-Proliferative Assay. The potency and selectivity of the anti-proliferative activity of the compounds of the present invention were assessed using a panel of MLL-rearranged and non-MLL-rearranged human leukemia cell lines. The MLL-rearranged panel included cell lines derived from ALL, AML and biphenotypic leukemias harboring MLL-AF4, MLL-AF9 or MLL-ENL fusions. These cell lines recruit DOT1L. […] Exponentially growing cells were plated, in triplicate, in 96-well plates at a density of 3×10^4 cells/well in a final volume of 150 μl. […] Anti-proliferative activity was determined by cell viability measurements every 3-4 days for up to 14 days.

[2] = tested on: MV4-11 xenograft tumors; experiment: In vivo anti-proliferative assay, mouse xenograft model of MLL-rearranged leukemia; set-up: species or system female nude mice; details: 21 days; for TGI compared to controls: non-statistically significant
Description: (§2) In Vivo Anti-Proliferative Assay. The in vivo anti-tumor activity of the compounds of the present invention were assessed in a mouse xenograft model of MLL-rearranged leukemia. Four groups of 20 (Groups 1, 3, 4 and 5), and one group of 8 (Group 2) female nude mice (average weight of 0.023 kg) bearing MV4-11 xenograft tumors of sizes ranging from 80-120 mm^3 were implanted subcutaneously with minipumps (Alzet Model 2001). Group 1 received vehicle only from the pump. Group 2 received vehicle only from the pump plus ip injections tid (8 hours apart) of vehicle. […] Pumps were designed to last for 7 days and were exchanged twice to give total infusion duration of 21 days exposure. […] Tumor size was measured every 4 days. After 21 days the study was terminated, and mean TGI calculated.

[3] = tested on: HL-60; experiment: In vitro anti-proliferative assay, HL-60; type: cell-based, human; details: HL-60, non-MLL-rearranged; up to 14 days
Description: as §1

[4] = Plasma levels of Compound 2 in the xenograft study; type: in vivo, female nude mice; details: female, nude, mouse; for concentration at 21 day: subcutaneous, read-out: average plasma level from the last sampling on day 21
Description: as §2, with “Four” for “In Vivo Anti-Proliferative Assay. The in vivo anti-tumor activity of the compounds of the present invention were assessed in a mouse xenograft model of MLL-rearranged leukemia. Four”

[5] = tested on: EOL-1 cells which express an MLL-PTD; experiment: In vitro anti-proliferative assay, EOL-1; type: cell-based; details: Homo sapiens, EOL1, 336 h; EOL-1, MLL-PTD; up to 14 days
Description: as §1

Question: For `CC(C)N(C[C@H]1O[C@@H](n2cnc3c(N)ncnc32)[C@H](O)[C@@H]1O)[C@H]1C[C@@H](CCc2nc3cc(C(C)(C)C)ccc3[nH]2)C1` [Compound 2, (2R,3R,4S,5R)-2-(6-amino-9H-purin-9-yl)-5-((((1r,3S)-3-(2-(5-(tert-butyl)-1H-benzo[d]imidazol-2-yl)ethyl)cyclobutyl)(isopropyl)amino)methyl)tetrahydrofuran-3,4-diol], which anti-proliferative activity [1] is on record?
Answer: no activity

Question: What about the “TGI compared to controls” value ([2]; 56 mg/kg/day minipump (Group 5)) of the same molecule?
Answer: 43%

Question: And the “TGI compared to controls” value ([2]; 112 mg/kg/day minipump (Group 4))?
Answer: 38%

Question: And the “TGI compared to the controls” value ([2]; Group 3: 112 mg/kg/day minipump plus ip 20 mg/kg tid, total 172 mg/kg/day, statistically significant)?
Answer: > 70%

Question: And the anti-proliferative activity [3]?
Answer: no activity

Question: And the Cmax ([4]; Group 3, ip 20 mg/kg tid plus 112 mg/kg/day minipump, read-out: Cmax after each of the tid ip injections)?
Answer: 4200 to 5000 ng/mL

Question: And the concentration at 21 day ([4]; Group 4, 112 mg/kg/day minipump)?
Answer: 99 ng/mL

Question: And the concentration at 21 day ([4]; Group 5, 56 mg/kg/day minipump)?
Answer: 52 ng/mL

Question: What about the IC50 [5] of the same molecule?
Answer: 0.011 µM
